From US20260028354A1, “TETRAHYDRONAPHTHALENE DERIVATIVES AS ESTROGEN RECEPTOR DEGRADERS” (REGENT OF THE UNIVERSITY OF MICHIGAN, priority 2022, published 2026)
Read-outs that look alike come from different tables or passages of the source.

Experiments:
MCF-7 cells = test: CellTiter-Glo (CTG) cell proliferation assay in MCF-7 cells; format: cell-based; conditions: Homo sapiens, MCF7, 144 h, MCF-7 cell proliferation, Day 6
Text: CellTiter-Glo® (CTG) Assays in MCF-7 and T47D Cell Lines.
In vitro Assay: MCF-7 and T47D CTG assay

ER in MCF-7 cells = ER in MCF-7 cells (Homo sapiens (Human), UniProt P03372); test: In-cell Western (ICW) ER degradation assay in MCF-7 cells; format: cell-based; conditions: for DC50: MCF-7, ER degradation, read-out: MCF7 DC50
Sequence of ER in MCF-7 cells (P03372 whole entry): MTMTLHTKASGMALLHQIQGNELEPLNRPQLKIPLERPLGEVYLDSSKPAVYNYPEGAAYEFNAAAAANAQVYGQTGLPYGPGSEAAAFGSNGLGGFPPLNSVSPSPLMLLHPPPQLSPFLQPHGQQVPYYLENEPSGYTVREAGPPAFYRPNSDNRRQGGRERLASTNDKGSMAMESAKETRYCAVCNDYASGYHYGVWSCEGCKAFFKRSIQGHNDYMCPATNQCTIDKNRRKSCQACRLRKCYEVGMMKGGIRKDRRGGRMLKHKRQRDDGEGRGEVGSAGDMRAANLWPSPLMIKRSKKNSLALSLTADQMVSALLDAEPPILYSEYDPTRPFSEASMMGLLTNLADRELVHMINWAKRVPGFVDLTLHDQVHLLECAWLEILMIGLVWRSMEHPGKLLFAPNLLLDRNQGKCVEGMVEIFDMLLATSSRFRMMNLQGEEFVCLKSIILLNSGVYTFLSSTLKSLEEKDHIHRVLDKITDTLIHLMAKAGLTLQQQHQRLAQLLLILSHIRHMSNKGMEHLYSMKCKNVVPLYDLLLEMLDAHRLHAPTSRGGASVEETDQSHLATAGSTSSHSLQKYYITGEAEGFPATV

[1] = MCF7, read-out: MCF7 Dmax, MCF-7, maximal ER degradation, 16 hrs treatment
[2] = MCF7, MCF-7, maximal ER degradation, 16 hrs treatment, read-out: MCF7 Dmax

SMILES | IC50 (MCF-7 cells) [nM] | Dmax (ER in MCF-7 cells; [1]) [%] | DC50 (ER in MCF-7 cells; 16 hrs treatment) [nM] | Dmax (ER in MCF-7 cells; [2]) [%]
O=C1CC[C@H](N2Cc3cc4c(cc3C2=O)OCC42CCN(CC3CC4(CCN(c5cnc(C6c7ccc(O)cc7CCC6c6ccccc6)cn5)CC4)C3)CC2)C(=O)N1 (stereo partly drawn) [Compound A202, (3S)-3-(1′-((7-(5-(6-hydroxy-2-phenyl-1,2,3,4-tetrahydronaph-thalen-1-yl)pyrazin-2-yl)-7-azaspiro[3.5]nonan-2-yl)meth-yl)-7-oxo-5,7-dihydro-2H,6H-spiro[furo[2,3-f]isoindole-3,4′-piperidin]-6-yl)piperidine-2,6-dione] | > 100 | 50 to 75 | < 1 | –
COc1cc(N2CCC3(CC2)CC(CN2CCC4(CC2)COc2c4cc(C)c4c2CN([C@H]2CCC(=O)NC2=O)C4=O)C3)c(F)cc1[C@@H]1c2ccc(O)cc2CC[C@@H]1c1ccccc1 [Compound A203, (S)-3-(1′-((7-(2-fluoro-4-((1S,2S)-6-hydroxy-2-phenyl-1,2,3,4-tetrahydronaphthalen-1-yl)-5-methoxyphenyl)-7-azaspiro[3.5]nonan-2-yl)methyl)-5-methyl-6-oxo-6,8-dihydro-2H,7H-spiro[furo[2,3-e]isoindole-3,4′-piperidin]-7-yl)piperidine-2,6-dione] | < 10 | > 75 | < 1 | –
COc1cc(N2CC(CCN3CCN4c5ccc6c(c5OC[C@H]4C3)CN([C@H]3CCC(=O)NC3=O)C6=O)C2)c(F)cc1[C@@H]1c2ccc(O)cc2CC[C@@H]1c1ccccc1 [Compound A204, (S)-3-((R)-7-(2-(1-(2-fluoro-4-((1S,2S)-6-hydroxy-2-phenyl-1,2,3,4-tetrahydronaphthalen-1-yl)-5-methoxyphenyl)azet-idin-3-yl)ethyl)-1-oxo-1,3,5,5a, 6,7,8,9-octahydro-2H-pyrazino [1′,2′:4,5][1,4]oxazino[2,3-e]isoindol-2-yl)piperidine-2,6-dione] | > 100 | – | 1 to 10 | 50 to 75
COc1cc(N2CC(CCN3CCC4(CC3)COc3cc5c(cc34)CN([C@H]3CCC(=O)NC3=O)C5=O)C2)c(F)cc1[C@@H]1c2ccc(O)cc2CC[C@@H]1c1ccccc1 [Compound A205, (S)-3-(1′-(2-(1-(2-fluoro-4-((1S,2S)-6-hydroxy-2-phenyl-1,2,3,4-tetrahydronaphthalen-1-yl)-5-methoxyphenyl)-azet-idin-3-yl)ethyl)-7-oxo-5,7-dihydro-2H,6H-spiro[furo[2,3-f]isoindole-3,4′-piperidin]-6-yl)piperidine-2,6-dione] | > 100 | 25 to 50 | 1 to 10 | –
COc1cc(N2CC(CCN3CCC4(CC3)COc3c4ccc4c3CN([C@H]3CCC(=O)NC3=O)C4=O)C2)c(F)cc1[C@@H]1c2ccc(O)cc2CC[C@@H]1c1ccccc1 [Compound A206, (S)-3-(1′-(2-(1-(2-fluoro-4-((1S,2S)-6-hydroxy-2-phenyl-1,2,3,4-tetrahydronaphthalen-1-yl)-5-methoxyphenyl)azet-idin-3-yl)ethyl)-6-oxo-6,8-dihydro-2H,7H-spiro[furo[2,3-e]isoindole-3,4′-piperidin]-7-yl)piperidine-2,6-dione] | > 100 | 50 to 75 | 1 to 10 | –
Cc1cc2c(c3c1C(=O)N([C@H]1CCC(=O)NC1=O)C3)OCC21CCN(C[C@H]2CCC3(CCN(c4ccc([C@@H]5c6ccc(O)cc6CC[C@@H]5c5ccccc5)cc4)CC3)OC2)CC1 [Compound A210, (S)-3-(1′-(((R)-9-(4-((1R,2S)-6-hydroxy-2-phenyl-1,2,3,4-tetrahydronaphthalen-1-yl)phenyl)-1-oxa-9-azaspiro[5.5]undecan-3-yl)methyl)-5-methyl-6-oxo-6,8-dihydro-2H,7H-spiro[furo[2,3-e]isoindole-3,4′-piperidin]-7-yl)piperidine-2,6-dione] | < 10 | > 75 | < 1 | –
COc1cc(N2CCC3(CC2)CC(CN2CCC4(CC2)COc2c4cc4c(c2Cl)C(=O)N([C@H]2CCC(=O)NC2=O)C4)C3)c(F)cc1[C@@H]1c2ccc(O)cc2CC[C@@H]1c1ccccc1 [Compound A218, (S)-3-(8-chloro-1′-((7-(2-fluoro-4-((1S,2S)-6-hydroxy-2-phenyl-1,2,3,4-tetrahydro-naphthalen-1-yl)-5-methoxy-phenyl)-7-azaspiro[3.5]nonan-2-yl)methyl)-7-oxo-5,7-dihydro-2H,6H-spiro[furo[2,3-f]isoindole-3,4′-piperidin]-6-yl)piperidine-2,6-dione] | < 10 | > 75 | < 1 | –
COc1cc(N2CCC3(CC2)CC(CN2CCC4(CC2)COc2c4cc(OC)c4c2CN([C@H]2CCC(=O)NC2=O)C4=O)C3)c(F)cc1[C@@H]1c2ccc(O)cc2CC[C@@H]1c1ccccc1 [Compound A222, (S)-3-(1′-((7-(2-fluoro-4-((1S,2S)-6-hydroxy-2-phenyl-1,2,3,4-tetrahydronaphthalen-1-yl)-5-methoxyphenyl)-7-azaspiro[3.5]nonan-2-yl)methyl)-5-methoxy-6-oxo-6,8-dihydro-2H,7H-spiro[furo[2,3-e]isoindole-3,4′-piperidin]-7-yl)piperidine-2,6-dione] | < 10 | > 75 | < 1 | –
COc1cc(N2CCC(CCN3CCC4(CC3)COc3c4cc(OC)c4c3CN([C@H]3CCC(=O)NC3=O)C4=O)CC2)c(F)cc1[C@@H]1c2ccc(O)cc2CC[C@@H]1c1ccccc1 [Compound A226, (S)-3-(1′-(2-(1-(2-fluoro-4-((1S,2S)-6-hydroxy-2-phenyl-1,2,3,4-tetrahydronaphthalen-1-yl)-5-methoxyphenyl)piperidin-4-yl)ethyl)-5-methoxy-6-oxo-6,8-dihydro-2H,7H-spiro[furo[2,3-e]isoindole-3,4′-piperidin]-7-yl)piperidine-2,6-dione] | < 10 | > 75 | < 1 | –
COc1cc(N2CCC3(CC[C@@H](CN4CCC5(CC4)COc4c5cc(C)c5c4CN([C@H]4CCC(=O)NC4=O)C5=O)CO3)CC2)c(F)cc1[C@@H]1c2ccc(O)cc2CC[C@@H]1c1ccccc1 [Compound A227, (S)-3-(1′-(((S)-9-(2-fluoro-4-((1S,2S)-6-hydroxy-2-phenyl-1,2,3,4-tetrahydronaphthalen-1-yl)-5-methoxyphenyl)-1-oxa-9-azaspiro[5.5]undecan-3-yl)methyl)-5-methyl-6-oxo-6,8-dihydro-2H,7H-spiro[furo[2,3-e]isoindole-3,4′-piperidin]-7-yl)piperidine-2,6-dione] | < 10 | > 75 | < 1 | –
COc1cc(N2CCC(CCN3CCN4c5cc(C)c6c(c5OC[C@H]4C3)CN([C@H]3CCC(=O)NC3=O)C6=O)CC2)c(F)cc1[C@@H]1c2ccc(O)cc2CC[C@@H]1c1ccccc1 [Compound A229, (S)-3-((R)-7-(2-(1-(2-fluoro-4-((1S,2S)-6-hydroxy-2-phenyl-1,2,3,4-tetrahydronaphthalen-1-yl)-5-methoxyphenyl)piper-idin-4-yl)ethyl)-12-methyl-1-oxo-1,3,5,5a,6,7,8,9-octahydro-2H-pyrazino[1′,2′:4,5][1,4]oxazino[2,3-e]isoindol-2-yl)-piperidine-2,6-dione] | 10 to 100 | – | < 1 | > 75
